Data on eight molecules can be found in US10941157B2, “Pesticidal compositions and uses thereof” (Gilead Apollo, LLC, priority 2015, dated 2021).

Common to all, as to format: cell-based
Experiment [1] concerns Fusarium virguliforme (Fv). Description: In vitro pathogen growth inhibition assay, Fv. The method in brief:
(§1)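 Spores of Dm, Fv and Pc were diluted in 17% V8 liquid medium; Rs used 1.5 mm mycelial plugs in ¼ PDB. Compounds from 2.5 mg/ml DMSO stocks were combined with inoculum, growth was read by OD600 at 24 and 48 h with blank subtraction, and the reported value is the concentration giving ≥90% inhibition.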

In a further experiment the test system is Botrtyis cinerea (Bc). Description: In vitro pathogen growth inhibition assay, Bc. The settings on record: 48 h. The method in brief:
(§2)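 Value reported is the compound concentration reaching ≥90% growth inhibition, from OD readings at 24 and 48 h after blank subtraction, confirmed visually. Inoculum was spores diluted in 17% V8 medium, except Rs, using 1.5 mm mycelial plugs in ¼ PDB; actual compound concentration corrected via OD600.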

The next experiment concerns Septoria tritici (St). Description: In vitro pathogen growth inhibition assay, St. The settings on record: Zymoseptoria tritici, 48 h. A digest of the protocol:
as §2

In experiment [2] the test system is Collectotrichum graminicola (Cg). Put plainly: In vitro pathogen growth inhibition assay, Cg. The settings on record: 48 h. A digest of the protocol: as §2
The next experiment relates to Diplodia maydis (Dm). Description: In vitro pathogen growth inhibition assay, Dm. The settings on record: Stenocarpella maydis, 48 h. A digest of the protocol:
as §1

For experiment [3], the system named is Phytophthora capsici (Pc). Description: In vitro pathogen growth inhibition assay, Pc. The settings on record: 48 h. The method in brief: as §1
In experiment [4] the test system is Fusarium moniliforme (Fm). Description: In vitro pathogen growth inhibition assay, Fm. The settings on record: Fusarium verticillioides. A digest of the protocol: as §2
The test system of a further experiment is Rhizoctonia solani (Rs). Description: In vitro pathogen growth inhibition assay, Rs (mycelial plugs). The settings on record: Rhizoctonia solani, 48 h. The method in brief:
as §1

The mark [5] stands for this setting: ≥90% growth inhibition, 48 hours, vs 2% DMSO control, read-out: Compound Concentration (ppm) sufficient for ≥90% inhibition of Fv.
Setting [6] is: ≥90% growth inhibition, 48 hours, vs 2% DMSO control, read-out: Compound Concentration (ppm) sufficient for ≥90% inhibition of Bc.
Setting [7] is: ≥90% growth inhibition, 48 hours, vs 2% DMSO control, read-out: Compound Concentration (ppm) sufficient for ≥90% inhibition of St.
Setting [8] is: ≥90% growth inhibition, 48 hours, vs 2% DMSO control, read-out: Compound Concentration (ppm) sufficient for ≥90% inhibition of Cg.
The mark [9] stands for this setting: ≥90% growth inhibition, 48 hours, vs 2% DMSO control, read-out: Compound Concentration (ppm) sufficient for ≥90% inhibition of Dm.
Setting [10] is: ≥90% growth inhibition, 48 hours, vs 2% DMSO control, read-out: Compound Concentration (ppm) sufficient for ≥90% inhibition of Pc.
Setting [11] is: ≥90% growth inhibition, 48 hours, vs 2% DMSO control, read-out: Compound Concentration (ppm) sufficient for ≥90% inhibition of Fm.
[12] abbreviates: ≥90% growth inhibition, mycelial plugs, 48 hours, vs 2% DMSO control, read-out: Compound Concentration (ppm) sufficient for ≥90% inhibition of Rs.

Structures are written as SMILES. Values after ≈ are worked out from the molar mass of the structure shown. Like-named read-outs stand apart in the source and are kept apart here.

Regarding `Cc1c(-n2nccn2)sc2c1c(=O)n(C(C)(C)C(=O)NC(C)C)c(=O)n2C[C@H](O[C@H]1CC[C@@H](O)CC1)c1cc(F)ccc1OCC#N` [Compound I-268], the IC90 was 2 µg/mL (≈ 3 µM) in experiment [1] (setting [5]); 2 µg/mL (≈ 3 µM) with Botrtyis cinerea (Bc) (setting [6]); above 50 µg/mL in the experiment with Septoria tritici (St) (setting [7]); 2 µg/mL (≈ 3 µM) in experiment [2] (setting [8]); at least 2 µg/mL in the experiment on Diplodia maydis (Dm) (setting [9]); above 50 µg/mL in experiment [3] (setting [10]). The IC90 in experiment [4] (setting [11]) worked out at 0.08 µg/mL (≈ 0.12 µM); with Rhizoctonia solani (Rs) (setting [12]), 0.4 µg/mL (≈ 0.599 µM).
In the case of `Cc1c(-n2nccn2)sc2c1c(=O)n(C(C)(C)C(=O)NC(C)C)c(=O)n2C[C@H](OCC(C)(C)C#N)c1cc(C#N)ccc1OCC#N` [Compound I-269], the IC90 was 10 µg/mL (≈ 15.2 µM) in experiment [1] (setting [5]); 10 µg/mL (≈ 15.2 µM) with Botrtyis cinerea (Bc) (setting [6]); above 50 µg/mL in the experiment on Septoria tritici (St) (setting [7]); above 50 µg/mL in experiment [2] (setting [8]); above 50 µg/mL with Diplodia maydis (Dm) (setting [9]); above 50 µg/mL in experiment [3] (setting [10]). In addition, the IC90 in experiment [4] (setting [11]) came out at 0.4 µg/mL (≈ 0.608 µM); with Rhizoctonia solani (Rs) (setting [12]) it was 2 µg/mL (≈ 3.04 µM).
For `COc1ccc(Br)cc1[C@H](Cn1c(=O)n(C(C)(C)C(=O)NC(C)C)c(=O)c2c(C)c(-n3nccn3)sc21)OCC(C)(C)C#N` [Compound I-270], the IC90 in experiment [1] (setting [5]) was 0.4 µg/mL (≈ 0.583 µM); with Botrtyis cinerea (Bc) (setting [6]), 0.4 µg/mL (≈ 0.583 µM); with Septoria tritici (St) (setting [7]), above 50 µg/mL; in experiment [2] (setting [8]) it was 2 µg/mL (≈ 2.91 µM); in the experiment on Diplodia maydis (Dm) (setting [9]), 2 µg/mL (≈ 2.91 µM); in experiment [3] (setting [10]), above 50 µg/mL. Further, the IC90 in experiment [4] (setting [11]) was 0.08 µg/mL (≈ 0.117 µM); in the experiment with Rhizoctonia solani (Rs) (setting [12]), above 50 µg/mL.
Regarding `Cc1c(-n2nccn2)sc2c1c(=O)n(C(C)(C)C(=O)NC(C)C)c(=O)n2C[C@H](OCCO)c1cc(F)ccc1O` [Compound I-271], the IC90 in experiment [1] (setting [5]) is 10 µg/mL (≈ 17.4 µM); in the experiment on Botrtyis cinerea (Bc) (setting [6]) it was 10 µg/mL (≈ 17.4 µM); in the experiment on Septoria tritici (St) (setting [7]) it was above 50 µg/mL; in experiment [2] (setting [8]), at least 10 µg/mL; with Diplodia maydis (Dm) (setting [9]) it was 50 µg/mL (≈ 87 µM); in experiment [3] (setting [10]), 50 µg/mL (≈ 87 µM). Further, the IC90 (in experiment [4] (setting [11]); in the experiment on Rhizoctonia solani (Rs) (setting [12])) was 2 µg/mL (≈ 3.48 µM) in each case.
As to `COc1ccc(Cl)cc1[C@H](Cn1c(=O)n(C(C)(C)C(=O)NC(C)C)c(=O)c2c(C)c(-n3nccn3)sc21)OCC(C)(C)C#N` [Compound I-272], the IC90 is 2 µg/mL (≈ 3.11 µM) in experiment [1] (setting [5]); 2 µg/mL (≈ 3.11 µM) with Botrtyis cinerea (Bc) (setting [6]); above 50 µg/mL in the experiment with Septoria tritici (St) (setting [7]); 2 µg/mL (≈ 3.11 µM) in experiment [2] (setting [8]); 2 µg/mL (≈ 3.11 µM) in the experiment on Diplodia maydis (Dm) (setting [9]); above 50 µg/mL in experiment [3] (setting [10]). The IC90 (in experiment [4] (setting [11]); with Rhizoctonia solani (Rs) (setting [12])) was 2 µg/mL (≈ 3.11 µM) in each case.
Consider `COc1ccc(F)cc1[C@](C)(Cn1c(=O)n(C(C)(C)C(=O)NC(C)C)c(=O)c2c(C)c(-n3nccn3)sc21)OCCC#N` [Compound I-273], for which the IC90 in experiment [1] (setting [5]) was 0.4 µg/mL (≈ 0.654 µM); in the experiment with Botrtyis cinerea (Bc) (setting [6]), 0.4 µg/mL (≈ 0.654 µM); in the experiment with Septoria tritici (St) (setting [7]) it was above 50 µg/mL; in experiment [2] (setting [8]), 2 µg/mL (≈ 3.27 µM); with Diplodia maydis (Dm) (setting [9]), 50 µg/mL (≈ 81.7 µM); in experiment [3] (setting [10]) it was above 50 µg/mL. For the same molecule, the values for the IC90 (in experiment [4] (setting [11]); in the experiment with Rhizoctonia solani (Rs) (setting [12])) were 0.08 µg/mL (≈ 0.131 µM) and 2 µg/mL (≈ 3.27 µM), respectively.
Turning to `COc1ccc(F)cc1[C@](O)(CCO)Cn1c(=O)n(C(C)(C)C(=O)NC(C)C)c(=O)c2c(C)c(-n3nccn3)sc21` [Compound I-275], the IC90 in experiment [1] (concentration sufficient to ≥90% inhibition of growth, 48 hours vs 2% DMSO control, read-out: Compound Concentration (ppm) for ≥90% inhibition, Fv) is above 50 µg/mL; with Botrtyis cinerea (Bc) (concentration sufficient to ≥90% inhibition of growth, 48 hours vs 2% DMSO control, read-out: Compound Concentration (ppm) for ≥90% inhibition, Bc), 50 µg/mL (≈ 84.9 µM); in the experiment on Septoria tritici (St) (concentration sufficient to ≥90% inhibition of growth, 48 hours vs 2% DMSO control, read-out: Compound Concentration (ppm) for ≥90% inhibition, St), above 50 µg/mL; in experiment [2] (concentration sufficient to ≥90% inhibition of growth, 48 hours vs 2% DMSO control, read-out: Compound Concentration (ppm) for ≥90% inhibition, Cg), 50 µg/mL (≈ 84.9 µM); with Diplodia maydis (Dm) (concentration sufficient to ≥90% inhibition of growth, 48 hours vs 2% DMSO control, read-out: Compound Concentration (ppm) for ≥90% inhibition, Dm), above 50 µg/mL; in experiment [3] (concentration sufficient to ≥90% inhibition of growth, 48 hours vs 2% DMSO control, read-out: Compound Concentration (ppm) for ≥90% inhibition, Pc) it was above 50 µg/mL. Further, the IC90 in experiment [4] (concentration sufficient to ≥90% inhibition of growth, 48 hours vs 2% DMSO control, read-out: Compound Concentration (ppm) for ≥90% inhibition, Fm) came to 50 µg/mL (≈ 84.9 µM); in the experiment on Rhizoctonia solani (Rs) (concentration sufficient to ≥90% inhibition of growth, 48 hours vs 2% DMSO control, read-out: Compound Concentration (ppm) for ≥90% inhibition, Rs), 50 µg/mL (≈ 84.9 µM).
As for `COc1ccc(F)cc1[C@@](O)(CCO)Cn1c(=O)n(C(C)(C)C(=O)NC(C)C)c(=O)c2c(C)c(-n3nccn3)sc21` [Compound I-276], the IC90 in experiment [1] (setting [5]) was 2 µg/mL (≈ 3.4 µM); in the experiment on Botrtyis cinerea (Bc) (setting [6]), 2 µg/mL (≈ 3.4 µM); with Septoria tritici (St) (setting [7]), above 50 µg/mL; in experiment [2] (setting [8]), 2 µg/mL (≈ 3.4 µM); in the experiment with Diplodia maydis (Dm) (setting [9]), 2 µg/mL (≈ 3.4 µM); in experiment [3] (setting [10]), 10 µg/mL (≈ 17 µM). Besides, the results for the IC90 (in experiment [4] (setting [11]); in the experiment on Rhizoctonia solani (Rs) (setting [12])) were 0.4 µg/mL (≈ 0.68 µM) and 0.08 µg/mL (≈ 0.136 µM), respectively.
